Earlier results as cited in patent publication US9751843B2, “Substituted uracils and use thereof” (Bayer Pharma Aktiengesellschaft, priority 2013, dated 2017).

Tested on: chymase
[1] = hamsters, myocardial infarction model

In the case of `CCOc1ccccc1CC1C(=O)N(C(=O)NC(c2ccc(C)cc2)c2ccc(C)cc2)C1Oc1ccc(C(=O)O)cc1` (stereo not drawn) [BCEAB], the chymase activity (hamster, in vivo) is listed as “reduced”, the hemodynamics [1] is listed as “improved” and the mortality [1] is listed as “reduced”.
